Test results reported in patent publication US20240199618A1, “NOVEL N-ACYL-[3-SUBSTITUTED]-[8-SUBSTITUTED]-5,6-DIHYDRO-[1,2,4]TRIAZOLO[4,3-a]PYRAZINES AS SELECTIVE NK-3 RECEPTOR ANTAGONISTS, PHARMACEUTICAL COMPOSITION, METHODS FOR USE IN NK-3 RECEPTOR-MEDIATED DISORDERS” (Ogeda SA, priority 2013, published 2024).
Where two headings read alike, the source gives them in different places.

Legend:
human NK-3 receptor [1] = target: T1, human NK-3 receptor (Homo sapiens (Human), UniProt P29371); experiment: Aequorin functional assay with human NK-3 receptor (antagonist testing vs NKA); type: cell-based; conditions: CHO cells, NKA at EC80 (3 nM); read-out: Functional assay: Aequorin assay with human NK-3 receptor hNK-3-AEQ (antagonist IC50)
In short: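 CHO cells co-expressing human NK-3 receptor and apoaequorin were pre-incubated 3 min with compound, then challenged with NKA at EC80 (3 nM). Coelenterazine-dependent luminescence was integrated over 90 s, and antagonism was derived from concentration-dependent inhibition of the calcium response.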

human NK-3 receptor [2] = target: T1, human NK-3 receptor; experiment: 3H-SB222200 binding competition assay with human NK-3 receptor
In short: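 Membranes from CHO cells stably expressing the receptor were incubated with 5 nM 3H-SB222200 and varying compound concentrations in HEPES 25 mM/NaCl 0.1 M/CaCl2 1 mM/MgCl2 5 mM/BSA 0.5%/saponin 10 μg/ml, pH 7.4. Bound radioligand was quantified as membrane-associated radioactivity after filtration.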

human NK-1 receptor = human NK-1 receptor (Homo sapiens (Human), UniProt P25103); experiment: Selectivity assay: [3H] substance P binding, human NK-1 receptor; conditions: 2 nM [3H] substance P, CHO membranes; read-out: hNK-1 (Ki)
In short: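 Competition binding on membranes from CHO cells expressing human NK-1 receptor, using 2 nM [3H] substance P in 50 mM Tris/5 mM MnCl2/150 mM NaCl/0.1% BSA, pH 7.4, with increasing compound concentrations. Incubated 60 min at 25 °C; bound radioactivity measured after filtration.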

human NK-2 receptor = human NK-2 receptor (Homo sapiens (Human), UniProt P21452); experiment: Selectivity assay: [125I]-Neurokinin A binding, human NK-2 receptor; conditions: 0.1 nM [125I]-Neurokinin A, CHO membranes; read-out: hNK-2 (Ki)
Procedure: The affinity of compounds of the invention for the NK-2 receptor was evaluated in CHO recombinant cells which express the human NK-2 receptor. Membrane suspensions were prepared from these cells. […] Binding assays were performed in a 25 mM HEPES/1 mM CaCl2)/5 mM MgCl2/0.5% BSA/10 μg/ml saponin, at pH 7.4. […] The radioactivity retained on the filters was measured by using the TopCount-NXT reader (Packard).

plasma protein = experiment: Determination of plasma protein binding (equilibrium dialysis, RED); type: in vitro ADME; conditions: 4 hours at 37° C.
[3] = test system: circulating levels of luteinizing hormone (LH); experiment: Castrated male rat model, circulating luteinizing hormone (LH); type: in vivo; conditions: single oral dose less than or equal to 30 mg/kg, p<0.05
Procedure: Castrated Male Rat Model to Assess the Effect of Compound of Invention on Circulating Levels of Luteinizing Hormone (LH)
The effect of compounds of the invention to inhibit luteinizing hormone (LH) secretion is determined by the following biological studies.
In humans and rodents, castration is well-precedented to permit heightened, persistent GnRH signaling and consequent elevation of circulating LH. Thus, a castrated rat model is used to provide a broad index for measurement of LH inhibition as a marker of test compound inhibition of the GnRH signaling pathway.
Castrated adult male Sprague-Dawley (SD) rats (150-175 g,) were purchased from Janvier (St Berthevin, France). All animals were housed 2 per cage in a temperature-controlled room (22±2° C.) and 50±5% relative humidity with a 12 hour/12 hour light/dark cycles (lights off at […]). The animals were allowed 3 weeks of postoperative recovery prior to study. Animals were handled on a daily basis. Standard diet and tap water were provided ad libitum. Animal cage litters were changed once a week. On the study day, animals were acclimated to the procedure room for a period of one hour prior to the initiation of the experiment.
Compounds of the invention were formulated in 0.5% methyl cellulose.
After basal sampling (TO) a single dose of compounds of the invention or vehicle was administrated orally to rats. Blood samples were then collected at several time points post dosing (45, 90, 150, 300 and 420 minutes). Blood samples were obtained via tail vein bleed, drawn into EDTA-containing tubes and centrifuged immediately. Plasma samples were collected and stored in a −80° C. freezer until assayed. Serum LH levels were determined using radioimmunoassay kit from RIAZEN—Rat L H, Zentech (Liege, Belgium). Baseline was defined as the initial basal blood sample.

[4] = Table 2, 5 nM 3H-SB222200, CHO membranes, read-out: Competitive binding assay with human NK-3 receptor hNK-3 (Ki)
[5] = Table 3 (selectivity table), read-out: hNK-3 (Ki)

Sequence of human NK-1 receptor (P25103 whole entry): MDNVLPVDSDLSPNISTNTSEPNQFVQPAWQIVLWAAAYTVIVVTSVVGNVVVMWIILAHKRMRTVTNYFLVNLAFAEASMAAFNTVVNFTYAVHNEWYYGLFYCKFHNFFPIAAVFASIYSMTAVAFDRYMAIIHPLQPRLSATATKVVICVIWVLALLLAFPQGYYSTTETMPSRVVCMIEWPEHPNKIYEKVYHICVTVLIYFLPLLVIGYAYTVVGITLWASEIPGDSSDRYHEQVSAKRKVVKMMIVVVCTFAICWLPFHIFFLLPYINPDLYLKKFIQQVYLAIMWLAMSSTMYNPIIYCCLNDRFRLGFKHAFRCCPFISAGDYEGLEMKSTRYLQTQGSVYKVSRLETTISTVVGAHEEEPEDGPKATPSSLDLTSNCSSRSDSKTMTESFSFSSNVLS
T1 sequence (P29371 whole entry): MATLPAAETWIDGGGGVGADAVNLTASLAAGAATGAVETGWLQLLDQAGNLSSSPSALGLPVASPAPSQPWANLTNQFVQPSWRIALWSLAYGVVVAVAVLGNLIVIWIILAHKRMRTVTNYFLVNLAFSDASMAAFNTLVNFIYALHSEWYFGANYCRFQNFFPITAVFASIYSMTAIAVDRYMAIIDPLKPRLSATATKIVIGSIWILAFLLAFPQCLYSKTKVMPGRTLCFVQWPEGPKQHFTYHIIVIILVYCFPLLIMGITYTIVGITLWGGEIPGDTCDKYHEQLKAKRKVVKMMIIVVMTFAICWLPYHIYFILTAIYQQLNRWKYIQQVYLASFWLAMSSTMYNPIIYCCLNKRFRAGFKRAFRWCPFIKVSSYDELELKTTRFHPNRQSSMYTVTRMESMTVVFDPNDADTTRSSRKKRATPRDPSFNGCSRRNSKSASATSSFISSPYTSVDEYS
Sequence of human NK-2 receptor (P21452 whole entry): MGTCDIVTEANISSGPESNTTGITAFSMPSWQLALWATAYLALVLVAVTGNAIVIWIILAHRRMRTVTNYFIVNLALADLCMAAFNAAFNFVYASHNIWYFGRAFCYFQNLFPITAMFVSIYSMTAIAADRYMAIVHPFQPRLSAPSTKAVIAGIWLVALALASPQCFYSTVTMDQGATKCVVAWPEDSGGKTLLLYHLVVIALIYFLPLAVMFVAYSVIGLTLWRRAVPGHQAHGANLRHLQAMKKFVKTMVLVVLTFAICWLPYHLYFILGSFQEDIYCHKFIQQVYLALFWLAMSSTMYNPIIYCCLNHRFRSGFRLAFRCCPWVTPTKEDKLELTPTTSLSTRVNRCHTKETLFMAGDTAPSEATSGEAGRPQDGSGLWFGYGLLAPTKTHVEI

Row | IC50 (human NK-3 receptor [1]) [nM] | Ki (human NK-3 receptor [2]; [4]) [nM] | Ki (human NK-3 receptor [2]; [5]) [nM] | Ki (human NK-1 receptor) [nM] | Ki (human NK-2 receptor) [nM] | Exposure (% rPPB), bound drug fraction to plasma protein (plasma protein) [%] | Compound | circulating LH levels [3]
1 | 19 | 20 | 20 | 19900 | 23000 | 40 | Cc1nsc(-c2nnc3n2CCN(C(=O)c2ccc(Cl)c(F)c2)[C@@H]3C)n1 [Compound 4, (R)-(4-chloro-3-fluorophenyl)(8-methyl-3-(3-methyl-1,2,4-thiadiazol-5-yl)-5,6-dihydro-[1,2,4]triazolo[4,3-a]pyrazin-7(8H)-yl)methanone] | significantly suppressed
2 | 33 | 26 | 26 | > 30000 | > 30000 | 29 | Cc1nsc(-c2nnc3n2CCN(C(=O)c2ccc(F)c(F)c2F)[C@@H]3C)n1 [Compound 8, (R)-(8-methyl-3-(3-methyl-1,2,4-thiadiazol-5-yl)-5,6-dihydro-[1,2,4]triazolo[4,3-a]pyrazin-7(8H)-yl)(2,3,4-trifluorophenyl)methanone] | significantly suppressed
3 | 21 | 30 | 30 | > 30000 | > 30000 | 22 | Cc1nsc(-c2nnc3n2CCN(C(=O)c2ccc(F)c(F)c2)[C@@H]3C)n1 [Compound 9, (R)-(3,4-difluorophenyl)(8-methyl-3-(3-methyl-1,2,4-thiadiazol-5-yl)-5,6-dihydro-[1,2,4]triazolo[4,3-a]pyrazin-7(8H)-yl)methanone] | significantly suppressed
4 | 44 | 40 | 40 | > 30000 | > 30000 | 37 | CCc1noc(-c2nnc3n2CCN(C(=O)c2ccc(F)cc2)[C@@H]3C)n1 [Compound 13, (R)-(3-(3-ethyl-1,2,4-oxadiazol-5-yl)-8-methyl-5,6-dihydro-[1,2,4]triazolo[4,3-a]pyrazin-7(8H)-yl)(4-fluorophenyl)methanone] | significantly suppressed
